Experimental data published in US20230332232A1, “COMPOSITIONS AND METHODS FOR DIAGNOSING AND TREATING A DYSTONIA” (Duke University, priority 2020, published 2023).

Test system: DYT1 knockin (Tor1a^delGAG/+) murine embryonic fibroblasts (MEFs)
Test: microRNA-seq of EVs from DYT1 MEFs treated with drug, compared with non-treated DYT1 MEFs
Format: cell-based, mouse
Description: In addition to proteomic analysis, total RNA-seq and microRNA-seq was performed on RNA isolated in parallel from the EV samples of Cohort 2. As with the proteomic analysis, one biological replicate was prepared from 3 distinct biological clonal cell lines for each genotype. Here, EVs were isolated from conditioned cell culture media by 18 hour ultracentrifugation at 100,000 g. RNA was extracted using the Qiagen miRNeasy Micro Kit (Cat. No. 217084) according to the manufacturer's protocol. Two RNA fractions were extracted from each sample, one enriched in coding and non-coding RNA species>200 nt (“Total RNA” fraction) and one enriched for small RNAs<200 nt (“miRNA” fraction). RNA samples were then submitted to the Duke Sequencing and Genomic Technologies shared resource for further quality control and sequencing. Samples were assessed for concentration and integrity by Qubit and Fragment Analyzer. The miRNA fractions were 4.16 ng/μL-47.57 ng/μL and total RNA fractions were 3.8 ng/μL-43.6 ng/μL. The small RNA library was prepared using the QIAseq miRNA Library Kit (Cat No./ID: 331505) and sequenced on the Illumina NextSeq 500 High-Output platform with 75 bp single-reads. The total RNA library was prepared using the Illumina TruSeq Stranded Total RNA-seq Kit with Ribozero Gold ribosomal RNA reduction and sequenced on the Illumina NovaSeq 6000 S1 platform with 100 bp paired-end reads. Sequencer lane pooling and read depth are attached in the Excel data summary (See “RNA QC” Tab). Data processing and analysis were performed in collaboration with the Duke Genomic Analysis and Bioinformatics shared resource. RNA-seq data was processed using the TrimGalore toolkit (http://www.bioinformatics.babraham.ac.uk/projects/trim_galore), which employs Cutadapt(Martin M. (2011) EMBnet.journal. 17(1):10-12) to trim low quality bases and Illumina sequencing adapters from the 3' end of the reads. Only reads that were 20 nt or longer after trimming were kept for further analysis. Reads were mapped to the mouse genome and transcriptome ([…], et al. (2012) Nucleic Acids Res. 40(Database issue):[…]-97) using the STAR RNA-seq alignment tool (Dobin A, et al. (2013). Bioinformatics. 29(1):15-21). If the reads mapped to a single genomic location, then they were kept for subsequent analysis. Gene counts were compiled using the HTSeq tool (http://www-huber.embl.de/users/anders/HTSeq/). Only genes that had at least 10 reads in any given library were used in subsequent analysis. Normalization and differential expression was carried out using the DESeq26 Bioconductor (Huber W, et al. (2015) Nat Methods. 12(2):115-121) package with the R statistical programming environment (www.r-project.org). […] 694 miRNAs were initially examined with respect to QC, genotype, RTV effects, and ISRIB effects. This subset was the “Full miRNA” subset. FIG. 9A and FIG. 9B show the RTV effect on EV composition in DYT1 cells compared to WT cells for 279 miRNAs, respectively. […] Beginning with the 694 miRNAs in the “Full miRNA” subset, more than 60 molecules were detected in either WT cells or DYT1 cells (WT or Het UMI>60). […] The candidate miRNAs were ranked by the sum of genotype-dependent absolute Z-scores and RTV-induced absolute Z-scores (Abs Z Score Sum (Geno+RTV)). This subset was the “miRNA-Ritonavir Therapeutic Efficacy” subset and contained 201 miRNAs.

[1] = RTV-treated vs non-treated DYT1 (Het) MEF EVs
[2] = mmu-miR-34a-5p, EVs of DYT1 (Het) MEFs
[3] = mmu-miR-34c-5p, EVs of DYT1 (Het) MEFs
[4] = mmu-miR-96-5p, EVs of DYT1 (Het) MEFs
[5] = mmu-miR-125b-1-3p, EVs of DYT1 (Het) MEFs
[6] = mmu-miR-130b-3p, EVs of DYT1 (Het) MEFs
[7] = mmu-miR-140-3p, EVs of DYT1 (Het) MEFs
[8] = mmu-miR-148a-3p, EVs of DYT1 (Het) MEFs
[9] = mmu-miR-182-5p, EVs of DYT1 (Het) MEFs

For `CC(C)c1nc(CN(C)C(=O)N[C@H](C(=O)N[C@@H](Cc2ccccc2)C[C@H](O)[C@H](Cc2ccccc2)NC(=O)OCc2cncs2)C(C)C)cs1` [RTV, Ritonavir], the “direction of modulated EV miRNA expression” value (DYT1 cells, miRNA-Ritonavir Therapeutic Efficacy subset, 201 miRNAs) was “modulated expression in a therapeutic direction”, the “RTV Direction Opposite dE?” value (EV miRNA mmu−let−7c−5p (housekeeping)) was “yes” and the “RTV Direction Opposite dE?” value (EV miRNA mmu−miR−22−3p) was “yes”. For the same compound, the “RTV Direction Opposite dE?” value (EV miRNA mmu−miR−34a−5p) was “yes”, the “RTV Direction Opposite dE?” value (EV miRNA mmu−miR−96−5p) was “yes” and the “RTV Direction Opposite dE?” value (EV miRNA mmu−miR−135a−5p) was “yes”. For the same compound, the “RTV Direction Opposite dE?” value (EV miRNA mmu−miR−182−5p) was “yes”, the “RTV Direction Opposite dE?” value (EV miRNA mmu−miR−183−5p) was “yes” and the “RTV Direction Opposite dE?” value (EV miRNA mmu−miR−199a−3p) was “yes”. The “RTV Direction Opposite dE?” value (EV miRNA mmu−miR−296−3p) was “yes”, the “RTV Direction Opposite dE?” value (EV miRNA mmu−miR−542−5p) was “yes” and the “mmu-miR-147-5p: RTVvHet Z Score” value [1] was −0.07. For the same compound, the “mmu-miR-181a-1-3p: RTVvHet Z Score” value [1] was 0.08, the “mmu-miR-331-5p: RTVvHet Z Score” value [1] was 0.00 and the “mmu-miR-668-3p: RTVvHet Z Score” value [1] was 0.31. The “mmu-miR-1930-5p: RTVvHet Z Score” value [1] was 0.00, the “mmu-miR-1943-5p: RTVvHet Z Score” value [1] was 0.23 and the “mmu-miR-1955-5p: RTVvHet Z Score” value [1] was 0.00. For the same compound, the “mmu-miR-3072-5p: RTVvHet Z Score” value [1] was −0.38, the “mmu-miR-3076-3p: RTVvHet Z Score” value [1] was 0.00 and the “mmu-miR-3088-3p: RTVvHet Z Score” value [1] was 0.18. For the same compound, the “mmu-miR-6936-3p: RTVvHet Z Score” value [1] was 0.00, the “mmu-miR-7224-3p: RTVvHet Z Score” value [1] was −0.17 and the “mmu-miR-467d-3p: RTVvHet Z Score” value [1] was −0.11. For the same compound, the “RTVvHet Z Score” value (mmu-let-7a-1-3p) was 0.62, the “RTVvHet Z Score” value (mmu-let-7c-2-3p) was 0.62 and the “RTV Direction Opposite dE?” value (mmu-let-7f-5p, EVs of DYT1 (Het) MEFs) was “yes”. For the same compound, the “RTVvHet Z Score” value (mmu-let-7g-5p) was 0.50, the “RTVvHet Z Score” value (mmu-let-7i-3p) was 1.15 and the “RTV Direction Opposite dE?” value (mmu-let-7i-5p, EVs of DYT1 (Het) MEFs) was “yes”. For the same compound, the “RTV Direction Opposite dE?” value (mmu-miR-30e-5p, EVs of DYT1 (Het) MEFs) was “yes”, the “RTVvHet Z Score” value (mmu-miR-30e-3p) was 0.49 and the “RTVvHet Z Score” value (mmu-miR-15a-5p) was 0.22. The “RTVvHet Z Score” value (mmu-miR-16-5p) was 0.21, the “RTVvHet Z Score” value (mmu-miR-17-3p) was 0.02 and the “RTV Direction Opposite dE?” value (mmu-miR-19b-3p, EVs of DYT1 (Het) MEFs) was “yes”. The “RTVvHet Z Score” value (mmu-miR-22-3p) was 1.26, the “RTV Direction Opposite dE?” value (mmu-miR-22-3p, EVs of DYT1 (Het) MEFs) was “yes” and the “RTVvHet Z Score” value (mmu-miR-23a-3p) was 0.46. For the same compound, the “RTVvHet Z Score” value (mmu-miR-25-3p) was 0.71, the “RTV Direction Opposite dE?” value (mmu-miR-26b-Sp, EVs of DYT1 (Het) MEFs) was “yes” and the “RTVvHet Z Score” value (mmu-miR-29b-3p) was 0.53. For the same compound, the “RTVvHet Z Score” value (mmu-miR-29c-3p) was 1.17, the “RTVvHet Z Score” value (mmu-miR-30a-5p) was 0.97 and the “RTV Direction Opposite dE?” value (mmu-miR-30a-5p, EVs of DYT1 (Het) MEFs) was “yes”. The “RTVvHet Z Score” value (mmu-miR-30b-5p) was 1.23, the “RTVvHet Z Score” value (mmu-miR-30c-5p (1st line so named)) was 1.38 and the “RTVvHet Z Score” value (mmu-miR-30c-5p (2nd line so named)) was 1.07. The “RTV Direction Opposite dE?” value (mmu-miR-30c-5p, EVs of DYT1 (Het) MEFs) was “yes”, the “RTVvHet Z Score” value (mmu-miR-31-3p) was 0.83 and the “RTVvHet Z Score” value (mmu-miR-31-5p) was 1.41. For the same compound, the “RTV Direction Opposite dE?” value (mmu-miR-31-5p, EVs of DYT1 (Het) MEFs) was “yes”, the “RTVvHet Z Score” value (mmu-miR-32-5p) was 0.75 and the “RTVvHet Z Score” value (mmu-miR-33-5p) was 1.52. The “RTVvHet Z Score” value (mmu-miR-34a-5p) was 1.38, the “Abs Z Score Sum (Geno + RTV)” value [2] was 3.80 and the “RTV Direction Opposite dE?” value [2] was “yes”. For the same compound, the “RTVvHet Z Score” value (mmu-miR-34b-5p) was 1.55, the “RTVvHet Z Score” value (mmu-miR-34c-3p) was 0.78 and the “RTVvHet Z Score” value (mmu-miR-34c-5p) was 1.33. The “Abs Z Score Sum (Geno + RTV)” value [3] was 3.36, the “RTV Direction Opposite dE?” value [3] was “yes” and the “RTV Direction Opposite dE?” value (mmu-miR-93-5p, EVs of DYT1 (Het) MEFs) was “yes”. The “RTVvHet Z Score” value (mmu-miR-96-5p) was 3.10, the “Abs Z Score Sum (Geno + RTV)” value [4] was 5.01 and the “RTV Direction Opposite dE?” value [4] was “yes”. The “RTVvHet Z Score” value (mmu-miR-98-5p) was 0.42, the “RTVvHet Z Score” value (mmu-miR-99a-5p) was 0.73 and the “RTVvHet Z Score” value (mmu-miR-101b-3p) was 0.52. For the same compound, the “RTV Direction Opposite dE?” value (mmu-miR-103-3p, EVs of DYT1 (Het) MEFs) was “yes”, the “RTVvHet Z Score” value (mmu-miR-106b-3p) was 0.15 and the “RTVvHet Z Score” value (mmu-miR-106b-5p) was 0.54. For the same compound, the “RTVvHet Z Score” value (mmu-miR-124-3p) was −1.59, the “RTVvHet Z Score” value (mmu-miR-125b-1-3p) was 1.02 and the “Abs Z Score Sum (Geno + RTV)” value [5] was 3.85. For the same compound, the “RTV Direction Opposite dE?” value [5] was “yes”, the “RTVvHet Z Score” value (mmu-miR-130b-3p) was 1.50 and the “Abs Z Score Sum (Geno + RTV)” value [6] was 3.92. The “RTV Direction Opposite dE?” value [6] was “yes”, the “RTV Direction Opposite dE?” value (mmu-miR-135a-5p, EVs of DYT1 (Het) MEFs) was “yes” and the “RTVvHet Z Score” value (mmu-miR-136-3p) was 1.52. For the same compound, the “RTVvHet Z Score” value (mmu-miR-140-3p) was 2.54, the “Abs Z Score Sum (Geno + RTV)” value [7] was 4.39 and the “RTV Direction Opposite dE?” value [7] was “yes”. For the same compound, the “RTVvHet Z Score” value (mmu-miR-146a-5p) was 0.10, the “RTVvHet Z Score” value (mmu-miR-148a-3p) was 1.86 and the “Abs Z Score Sum (Geno + RTV)” value [8] was 3.69. For the same compound, the “RTV Direction Opposite dE?” value [8] was “yes”, the “RTVvHet Z Score” value (mmu-miR-148b-3p) was 0.58 and the “RTVvHet Z Score” value (mmu-miR-149-5p) was 0.33. The “RTVvHet Z Score” value (mmu-miR-151-5p) was 0.32, the “RTVvHet Z Score” value (mmu-miR-152-3p) was 0.76 and the “RTVvHet Z Score” value (mmu-miR-181a-5p) was 0.31. The “RTVvHet Z Score” value (mmu-miR-181b-5p) was 0.54, the “RTVvHet Z Score” value (mmu-miR-181c-5p) was 0.88 and the “RTVvHet Z Score” value (mmu-miR-182-5p) was 5.33. The “Abs Z Score Sum (Geno + RTV)” value [9] was 7.27 and the “RTV Direction Opposite dE?” value [9] was “yes”.
